# Experiments:
# Type in all cases: in vivo, mice
# [1] = system: invasion of inflammatory cells into lung tissue; test: Invasion of inflammatory cells into lung tissue, LPS-induced asthma/COPD model (H&E score); conditions: ovalbumin + LPS model
# Description: Then, the lung was isolated, embedded with paraffin, sectioned to a thickness of […], and stained with H&E (hematoxylin-eosin). The invasion of inflammatory cells into a portion surrounding the airway was measured (see FIG. 3), and the inflammations of the airway and the pulmonary parenchyma were compared and scored.
# [2] = system: anti-E. coli-EV-specific IgG1; test: Antigen-specific antibody in serum, E. coli-EV-induced model (ELISA)
# Description: (§1) In order to examine whether the extract of the present invention has the ability to produce an antigen-specific antibody in an E. coli-EV-induced asthma/chronic obstructive pulmonary disease model, the E. coli-EV-induced asthma/chronic obstructive pulmonary disease model was prepared by treatment with each of the extract of Example 2 and a comparative drug in the same manner as described in Test Example 8-1. At 48 hours after the final challenge, the mice were anesthetized by intraperitoneal injection with ketamine and xylazine. Then, blood was collected from the heart using a 1 ml syringe, and serum was separated from the blood by centrifugation. Then, anti-E. coli-EV-specific IgG1 and IgG2a antibodies in the serum were measured according to an ELISA assay, and the results of the measurement are shown in Table 15 below.
# [3] = system: anti-E. coli-EV-specific IgG2a; test: as above
# Description: as §1
# [4] = system: inflammatory cells in pulmonary bronchoalveolar lavage; test: Inflammatory cells in pulmonary bronchoalveolar lavage, LPS-induced asthma/COPD model; conditions: ovalbumin + LPS model
# Description: Whether the extract of the present invention has the effect of inhibiting pulmonary bronchial inflammation in an LPS (lipopolysaccharide)-induced asthma/chronic obstructive pulmonary disease model was examined (see You-Sun Kim et al., J. Immunol., 2010, 185, 5648-5655; Jun-Pyo Choi et al., Allergy, 2010, 65, 1322-1330).
# Specifically, a mixture of 75 μg of ovalbumin and 10 μg of LPS (Sigma) was intranasally administered a total of four times (days 0, 1, 2 and 7) into C57BL/6 male mice (6 weeks old; provided from the Animal Laboratory in Biotech Center, Pohang University of Science & Technology) to sensitize the mice. At 14, 15, 21 and 22 days from the first sensitization date, 50 μg of ovalbumin in PBS was challenged into the nasal cavity to induce asthma and chronic obstructive pulmonary disease. In addition, at 14, 15, 21 and 22 days at which challenge was performed, each of 1.0% CMC, 100, 200 and 400 mg/10 ml/kg of the extract of Example 2, 1 mg/10 ml/Kg of the comparative drug dexamethason and 10 mg/10 ml/kg of the comparative drug montelukast was orally administered twice a day. At 48 hours after the final challenge, the mice were anesthetized by intraperitoneal administration of ketamine and xylazine, and the organ of the mice was exposed and a catheter was inserted therein. Then, the bronchoalveoli were laved with each of 0.8 and 0.7 ml of sterile phosphate buffered saline to obtain a bronchoalveolar lavage. The bronchoalveolar lavage was centrifuged at 4° C. at 1000 rpm for 5 minutes, and the supernatant was removed. 2 ml of 10% FBS-IMDM (fetal bovine serum—Iscove's Modified Dulbecco's Medium) was added to the cells which were then counted. Then, the cells were cytospun, plated on a slide, and Diff-Quick stained. At least 300 inflammatory cells were observed by the staining method and classified into eosinophils, macrophages, neutrophils and lymphocytes, and the cell numbers of the groups treated with dexamethason, montelukast and the extract of Example 2 were compared with the ratios of inflammatory cells in the pulmonary bronchoalveolar lavages of the negative control group and the positive control group, thereby evaluating the inhibitory effects of the test materials against airway inflammation.
# [5] = system: MCP-1 (monocyte chemoattractant protein-1); test: Inflammatory mediator in bronchoalveolar lavage, E. coli-EV-induced model (ELISA)
# Description: (§2) The expression patterns of the inflammatory mediators MCP-1 (monocyte chemoattractant protein-1) and MIP-1α (macrophage inflammatory protein-1α) in the bronchoalveolar lavage obtained in Test Example 8-1 were measured using an ELISA assay, and the results of the measurement are shown in Table 14 below.
# [6] = system: MIP-1α (macrophage inflammatory protein-1α); test: as above
# Description: as §2
# [7] = system: IFN-γ; test: T cell-derived cytokine from lung tissue, E. coli-EV-induced model (ELISA)
# Description: (§3) In order to examine whether the extract of the present invention has the effect of inhibiting T cell-derived cytokine isolated from the lung tissue of an E. coli-EV-derived asthma/chronic obstructive pulmonary disease model, the following test was performed.
# (§4) Specifically, the […] asthma/chronic obstructive pulmonary disease model was prepared by treatment with each of the extract of Example 2 and a comparative drug in the same manner as described in Test Example 8-1. At 6 hours after the final challenge, the mice were anesthetized by intraperitoneal injection with ketamine and xylazine, and lung tissue was obtained from the mice. The lung tissue was cut finely with a blade and incubated with 5 ml of 1× Trypsin-EDTA and 1000 units of chollagenase at 37 °C for 10 minutes. Then, the tissue was passed through a 100 μm mesh to collect only immune cells. To stimulate T cells among the collected cells, 1×10^5 cells and anti-CD28 (1 μg/ml) were added to a 96-well plate coated with anti-CD3 (1 μg/ml) and were incubated in an incubator at 37° C. for 12 hours. Next, the supernatant was collected, and the amounts of cytokines in the supernatant were measured using an ELISA assay.
# [8] = system: IL-17; test: as above
# Description: as §3, §4
SMILES,Inhibition rate (%) of invasion of inflammatory cells into lung tissue ([1]; 10 mg/kg b.i.d.) [%],Inhibition rate(%) IgG1 ([2]; 10 mg/kg b.i.d.) [%],Inhibition rate(%) IgG2a ([3]; 10 mg/kg b.i.d.) [%],Inhibition rate(%) Eosinophils ([4]; 10 mg/kg b.i.d.) [%],Inhibition rate(%) Macrophages ([4]; 10 mg/kg b.i.d.) [%],Inhibition rate(%) Total cells ([4]; 10 mg/kg b.i.d.) [%],Inhibition rate(%) MCP-1 ([5]; 10 mg/kg b.i.d.) [%],Inhibition rate(%) MIP-1α ([6]; 10 mg/kg b.i.d.) [%],IFN-γ inhibition rate (%) ([7]; 10 mg/kg b.i.d.),IL-17 inhibition rate (%) ([8]; 10 mg/kg b.i.d.),Inhibition rate (%) of invasion of inflammatory cells into lung tissue ([1]; 1 mg/kg b.i.d.) [%],Inhibition rate(%) IgG1 ([2]; 1 mg/kg b.i.d.) [%],Inhibition rate(%) IgG2a ([3]; 1 mg/kg b.i.d.) [%],Inhibition rate(%) Eosinophils ([4]; 1 mg/kg b.i.d.) [%],Inhibition rate(%) Macrophages ([4]; 1 mg/kg b.i.d.) [%],Inhibition rate(%) Total cells ([4]; 1 mg/kg b.i.d.) [%],Inhibition rate(%) MCP-1 ([5]; 1 mg/kg b.i.d.) [%],Inhibition rate(%) MIP-1α ([6]; 1 mg/kg b.i.d.) [%],IFN-γ inhibition rate (%) ([7]; 1 mg/kg b.i.d.),IL-17 inhibition rate (%) ([8]; 1 mg/kg b.i.d.)
CC(C)(O)c1ccccc1CC[C@@H](SCC1(CC(=O)O)CC1)c1cccc(/C=C/c2ccc3ccc(Cl)cc3n2)c1 [montelukast],8.25,59.7,27.2,13.3,8.2,10.6,11.5,4.2,0.23,0.22,–,–,–,–,–,–,–,–,–,–
"C[C@@H]1C[C@H]2[C@@H]3CCC4=CC(=O)C=C[C@]4(C)[C@@]3(F)[C@@H](O)C[C@]2(C)[C@@]1(O)C(=O)CO [Dexamethason, dexamethason]",–,–,–,–,–,–,–,–,–,–,28.87,93.8,55.7,51.1,27.3,40.4,1.2,8.3,1.13,1.12

# — patent US20140030368A1, “COMPOSITION FOR PREVENTING OR TREATING A RESPIRATORY DISEASE CONTAINING A MIXED HERBAL EXTRACT OF CNIDIUM OFFICINALE ROOT AND POLYGONI CUSPIDATI ROOT” (WHANIN PHARMACEUTICAL CO., LTD., priority 2011, published 2014)
